Results published in patent US12201633B2, “Compounds and methods for treatment of visceral pain” (Arena Pharmaceuticals, Inc., priority 2017, dated 2025).

Tests used:
[1] = target: T1, human CB2 receptor (Homo sapiens, UniProt P34972); assay: PathHunter β-arrestin assay, CB2
[2] = target: T1, human CB2 receptor; assay: HTRF assay for direct cAMP measurement, CB2; assay type: cell-based; set-up: 93-0164 (CHO-K1 EA-Arrestin parental line); host or cells: CHO-K1 EA-Arrestin, clone #61
[3] = read-out: EC50 hCB2, β-arrestin, CHO-K1 cells, Table B-2

T1 sequence (P34972 whole entry): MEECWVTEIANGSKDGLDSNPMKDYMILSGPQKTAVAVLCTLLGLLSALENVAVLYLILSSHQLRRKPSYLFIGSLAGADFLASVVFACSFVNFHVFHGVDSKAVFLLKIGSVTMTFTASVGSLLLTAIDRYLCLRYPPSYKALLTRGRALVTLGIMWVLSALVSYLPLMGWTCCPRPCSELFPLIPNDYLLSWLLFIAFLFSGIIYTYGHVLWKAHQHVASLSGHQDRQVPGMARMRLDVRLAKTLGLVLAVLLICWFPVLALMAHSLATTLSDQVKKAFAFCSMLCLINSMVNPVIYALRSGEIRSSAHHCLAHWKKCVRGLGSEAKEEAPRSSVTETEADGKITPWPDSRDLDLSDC

Row | SMILES | EC50 [1] | EC50 [2] | EC50 [1, 3]
1 | O=C(NC1(CO)CC1)c1nn(-c2ccc(Cl)cc2Cl)c2c1C[C@H]1C[C@@H]21 [Compound 174, (1aR,5aR)-2-(2,4-Dichloro-phenyl)-1a,2,5,5a-tetrahydro-1H-2,3-diaza-cyclopropa[a]pentalene-4-carboxylic acid (1-hydroxymethyl-cyclopropyl)-amide] | 167 nM | 38.2 nM | 
2 | CC(C)(CO)NC(=O)c1nn(-c2cnc(C#N)cn2)c2c1C[C@H]1C[C@@H]21 [Compound 264, (1aR,5aR)-2-(5-Cyano-pyrazin-2-yl)-1a,2,5,5a-tetrahydro-1H-2,3-diaza-cyclopropa[a]pentalene-4-carboxylic acid (2-hydroxy-1,1-dimethyl-ethyl)-amide] |  | 10.1 nM | 
3 | CC(C)(CO)NC(=O)c1nn(-c2ccc(F)cn2)c2c1C[C@H]1C[C@@H]21 [Compound 309, (1aR,5aR)-2-(5-Fluoro-pyridin-2-yl)-1a,2,5,5a-tetrahydro-1H-2,3-diaza-cyclopropa[a]pentalene-4-carboxylic acid (2-hydroxy-1,1-dimethyl-ethyl)-amide] | 136 nM | 19 nM | 
4 | CC(C)(CO)NC(=O)c1nn(-c2ccc(F)cc2F)c2c1C1CC1C2 (centres unmarked) [Compound 515, 1-(2,4-Difluoro-phenyl)-3b,4,4a,5-tetrahydro-1H-cyclopropa[3,4]cyclopenta[1,2-c]pyrazole-3-carboxylic acid (2-hydroxy-1,1-dimethyl-ethyl)-amide] |  | 4.32 nM | 
5 | CC(C)(C#N)NC(=O)c1nn(-c2cc(Cl)ccn2)c2c1C[C@H]1C[C@@H]21 [Compound 625, (1aR,5aR)-2-(4-Chloro-pyridin-2-yl)-1a,2,5,5a-tetrahydro-1H-2,3-diaza-cyclopropa[a]pentalene-4-carboxylic acid (cyano-dimethyl-methyl)-amide] | 11.8 nM | 4.45 nM | 
6 | CC(C)(C)[C@@H](CO)NC(=O)c1nn(-c2cnccn2)c2c1C[C@H]1C[C@@H]21 [Compound 642, (1aR,5aR)-2-Pyrazin-2-yl-1a,2,5,5a-tetrahydro-1H-2,3-diaza-cyclopropa[a]pentalene-4-carboxylic acid ((S)-1-hydroxymethyl-2,2-dimethyl-propyl)-amide] | 26.4 nM | 4.38 nM | 
7 | CC(C)(COP(=O)(O)O)NC(=O)c1nn(-c2cc(C#N)ccn2)c2c1C[C@H]1C[C@@H]21 [Compound 646, Phosphoric acid mono-(2-{[(1aR,5aR)-2-(4-cyano-pyridin-2-yl)-1a,2,5,5a-tetrahydro-1H-2,3-diaza-cyclopropa[a]pentalene-4-carbonyl]-amino}-2-methyl-propyl) ester] | 925 nM |  | 
8 | CC(C)(C)[C@@H](COP(=O)(O)O)NC(=O)c1nn(-c2cnccn2)c2c1C[C@H]1C[C@@H]21 [Compound 683, Phosphoric acid mono-{(S)-3,3-dimethyl-2-[((1aR,5aR)-2-pyrazin-2-yl-1a,2,5,5a-tetrahydro-1H-2,3-diaza-cyclopropa[a]pentalene-4-carbonyl)-amino]-butyl} ester] | 3000 nM |  | 
9 | O=C(N[C@H](CO)C1CCOCC1)c1nn(-c2cnccn2)c2c1C[C@H]1C[C@@H]21 [Compound 684, (1aR,5aR)-2-Pyrazin-2-yl-1a,2,5,5a-tetrahydro-1H-2,3-diaza-cyclopropa[a]pentalene-4-carboxylic acid ((S)-2-hydroxy-1-tetrahydro-pyran-4-yl-ethyl)-amide] | 59 nM | 7.08 nM | 
10 | CC(C)[C@@H](CO)NC(=O)c1nn(-c2c[n+]([O-])ccn2)c2c1C[C@H]1C[C@@H]21 [Compound 690, (1aR,5aR)-2-(4-Oxy-pyrazin-2-yl)-1a,2,5,5a-tetrahydro-1H-2,3-diaza-cyclopropa[a]pentalene-4-carboxylic acid ((S)-1-hydroxymethyl-2-methyl-propyl)-amide] | 31 nM | 1.79 nM | 
11 | CC(C)(C)[C@@H](COP(=O)(O)O)NC(=O)c1nn(-c2c[n+]([O-])ccn2)c2c1C[C@H]1C[C@@H]21 [Compound 703, Phosphoric acid mono-((S)-3,3-dimethyl-2-{[(1aR,5aR)-2-(4-oxy-pyrazin-2-yl)-1a,2,5,5a-tetrahydro-1H-2,3-diaza-cyclopropa[a]pentalene-4-carbonyl]-amino}-butyl) ester] | 603 nM |  | 
12 | COC(=O)C(NC(=O)c1nn(-c2c[n+]([O-])ccn2)c2c1C[C@H]1C[C@@H]21)c1ccccn1 (stereo partly drawn) [Compound 711, {[(1aR,5aR)-2-(4-Oxy-pyrazin-2-yl)-1a,2,5,5a-tetrahydro-1H-2,3-diaza-cyclopropa[a]pentalene-4-carbonyl]-amino}-pyridin-2-yl-acetic acid methyl ester] | 28.1 nM |  | 
13 | CNC(=O)[C@@H](NC(=O)c1nn(-c2c[n+]([O-])ccn2)c2c1C[C@H]1C[C@@H]21)c1ccccc1 [Compound 722, (1aR,5aR)-2-(4-Oxy-pyrazin-2-yl)-1a,2,5,5a-tetrahydro-1H-2,3-diaza-cyclopropa[a]pentalene-4-carboxylic acid ((S)-methylcarbamoyl-phenyl-methyl)-amide] | 34 nM |  | 
14 | O=C(NC1(C(F)(F)F)CC1)c1nn(-c2c[n+]([O-])ccn2)c2c1C[C@@H]1C[C@H]21 [Compound 764, (1aS,5aS)-2-(4-Oxy-pyrazin-2-yl)-1a,2,5,5a-tetrahydro-1H-2,3-diaza-cyclopropa[a]pentalene-4-carboxylic acid (1-trifluoromethyl-cyclopropyl)-amide] |  |  | 5.92 nM
15 | CC(C)(C)[C@@H](NC(=O)c1nn(-c2c[n+]([O-])ccn2)c2c1C[C@@H]1C[C@H]21)c1ccccn1 [Compound 766, (1aS,5aS)-2-(4-Oxy-pyrazin-2-yl)-1a,2,5,5a-tetrahydro-1H-2,3-diaza-cyclopropa[a]pentalene-4-carboxylic acid ((R)-2,2-dimethyl-1-pyridin-2-yl-propyl)-amide] | 4.57 nM |  | 
16 | CC(C)(C)[C@H](NC(=O)c1nn(-c2c[n+]([O-])ccn2)c2c1C[C@@H]1C[C@H]21)c1ccccn1 [Compound 767, (1aS,5aS)-2-(4-Oxy-pyrazin-2-yl)-1a,2,5,5a-tetrahydro-1H-2,3-diaza-cyclopropa[a]pentalene-4-carboxylic acid ((S)-2,2-dimethyl-1-pyridin-2-yl-propyl)-amide] | 66.6 nM |  | 
17 | CC(C)[C@@H](C)NC(=O)c1nn(-c2c[n+]([O-])ccn2)c2c1C[C@H]1C[C@@H]21 [Compound 828, (1aR,5aR)-2-(4-Oxy-pyrazin-2-yl)-1a,2,5,5a-tetrahydro-1H-2,3-diaza-cyclopropa[a]pentalene-4-carboxylic acid ((R)-1,2-dimethyl-propyl)-amide] | 4.14 nM |  | 
18 | CC(C)[C@H](N)C(=O)OC[C@@H](NC(=O)c1nn(-c2c[n+]([O-])ccn2)c2c1C[C@@H]1C[C@H]21)C(C)(C)C [Compound 848, (1aS,5aS)—(S)-2-Amino-3-methyl-butyric acid (S)-3,3-dimethyl-2-{[2-(4-oxy-pyrazin-2-yl)-1a,2,5,5a-tetrahydro-1H-2,3-diaza-cyclopropa[a]pentalene-4-carbonyl]-amino}-butyl ester] | 50 nM |  | 
19 | CC(C)[C@@H](CO)NC(=O)c1nn(-c2c[n+]([O-])ccn2)c2c1C[C@@H]1C[C@H]21 [Compound 896, (1aS,5aS)-2-(4-Oxy-pyrazin-2-yl)-1a,2,5,5a-tetrahydro-1H-2,3-diaza-cyclopropa[a]pentalene-4-carboxylic acid ((S)-1-hydroxymethyl-2-methyl-propyl)-amide] | 43.5 nM |  | 
20 | CC(C)(C)NNC(=O)c1nn(-c2c[n+]([O-])ccn2)c2c1C[C@@H]1C[C@H]21 [Compound 902, (1aS,5aS)-2-(4-Oxy-pyrazin-2-yl)-1a,2,5,5a-tetrahydro-1H-2,3-diaza-cyclopropa[a]pentalene-4-carboxylic acid N′-tert-butyl-hydrazide] | 77.5 nM |  | 
21 | CC(C)(CF)NC(=O)c1nn(-c2c[n+]([O-])ccn2)c2c1C[C@@H]1C[C@H]21 [Compound 904, (1aS,5aS)-2-(4-Oxy-pyrazin-2-yl)-1a,2,5,5a-tetrahydro-1H-2,3-diaza-cyclopropa[a]pentalene-4-carboxylic acid (2-fluoro-1,1-dimethyl-ethyl)-amide] | 31.4 nM |  | 
22 | CC(C)[C@@H](C)NC(=O)c1nn(-c2c[n+]([O-])ccn2)c2c1C[C@@H]1C[C@H]21 [Compound 912, (1aS,5aS)-2-(4-Oxy-pyrazin-2-yl)-1a,2,5,5a-tetrahydro-1H-2,3-diaza-cyclopropa[a]pentalene-4-carboxylic acid ((R)-1,2-dimethyl-propyl)-amide] | 9.49 nM |  | 
23 | O=C(N[C@H](CO)c1ccccc1)c1nn(-c2c[n+]([O-])ccn2)c2c1C[C@@H]1C[C@H]21 [Compound 913, (1aS,5aS)-2-(4-Oxy-pyrazin-2-yl)-1a,2,5,5a-tetrahydro-1H-2,3-diaza-cyclopropa[a]pentalene-4-carboxylic acid ((S)-2-hydroxy-1-phenyl-ethyl)-amide] |  |  | 105 nM
24 | O=C(N[C@H]1c2ccccc2C[C@@H]1O)c1nn(-c2c[n+]([O-])ccn2)c2c1C[C@@H]1C[C@H]21 [Compound 920, (1aS,5aS)-2-(4-Oxy-pyrazin-2-yl)-1a,2,5,5a-tetrahydro-1H-2,3-diaza-cyclopropa[a]pentalene-4-carboxylic acid ((1S,2S)-2-hydroxy-indan-1-yl)-amide] | 4.6 nM |  | 
25 | O=C(NC1(C(F)(F)F)CC1)c1nn(-c2cnccn2)c2c1C[C@@H]1C[C@H]21 [Compound 930, (1aS,5aS)-2-Pyrazin-2-yl-1a,2,5,5a-tetrahydro-1H-2,3-diaza-cyclopropa[a]pentalene-4-carboxylic acid (1-trifluoromethyl-cyclopropyl)-amide] | 17 nM |  | 
26 | CC(C)(CO)NC(=O)c1nn(-c2cc(F)ccn2)c2c1C[C@H]1C[C@@H]21 [Compound 931, (1aR,5aR)-2-(4-Fluoro-pyridin-2-yl)-1a,2,5,5a-tetrahydro-1H-2,3-diaza-cyclopropa[a]pentalene-4-carboxylic acid (2-hydroxy-1,1-dimethyl-ethyl)-amide] | 20.8 nM |  | 
